From patent US6753171B2, “Site-specific cell perforation technique” (Center for Advanced Science and Technology Incubation, Ltd., priority 1998, dated 2004)

Columns and labels:
nerve cell line PC12 = assay: Measurement of membrane resistance and membrane potential following light exposure (patch clamp); assay type: cell-based; conditions: for change in cell membrane resistance/membrane potential following light exposure: 363 nm argon ion laser
Experimental: Since there is a need to monitor cellular level micro membrane damages, including the recovering process within seconds to a few minutes, the intermembrane potential of the cell membrane, or the ionic current passing through the cell membrane was measured using the patch clamp method, which is an electrophysiology experiment technique.
The photosensitizer BAT was dispersed in HEPES (25 mM,pH7.4) buffer.
Cells were incubated at room temperature within an electrophysiology experimental culture medium.
2H2O, 2.4 mM; MgSO4. 7H2O, 1.3 mM; glucose 10 mM, in which the pH was adjusted to […] by finally adding NaOH. To prevent any influence due to evaporation, the electrophysiology experiment culture medium was changed every 40 min at the latest by a pipette.
BAT was added to a final concentration of 49 μM. Exposed light quantity was in three stages, being 0.47 J/cm^2, 0.94 J/cm^2, and 1.57 J/cm^2.
The solution within the patch electrodes had the composition of KCl 132 mM, NaCl, 8 mM, MgCl2, 2 mM, HEPES 30 mM, Na2ATP 4 mM, GTP 0.3 mM, and EGTA 0.5 mM, in which the pH was adjusted to 7.3 by finally adding NaOH.
As the excitation power source, 50 mW, 363 nm argon ion laser standardly equipped within a confocal laser scanning microscope (CLSM) MRC-1000 UV (BIO-RAD laboratories) was used. 1/16th (¼^th to the direction of the X axis and Y axis, 117 μm×170 μm) of the full screen of the microscope is scanned with the above-described laser beams. Adjustments were done so that the whole image of the patched target cell came into this area. 50 mW laser beam is a 100% output. According to the scanning speed, the exposed duration was selected from 1/16, ¼, 1/32 sec. The light reduction by the lens was also utilized. When the zoom function was used, the light is scanned on a concentrated area smaller than the normal area, and therefore, the light quantity per unit area increases in proportion to the square of the zoom magnification. Since the excitation light has to pass through the plastic of the collagen-coated dish before reaching the cells, there is a necessity to consider light reduction.
Also, in the excitation light exposure, a TTL signal coupled with an electrophysiological recording is suitably transmitted to the excitation light source, to synchronize the exposure and electrical measurement.
At the start of the electrophysiological experiment, the cell membrane potential was maintained between −80 to −60 mV. The resistance of the patch electrode was 3˜4 MΩ, and the above described solution was filled into electrodes, and used.
As for the amplifier for cell membrane potential measurement, Axopatch 1-D (Axon Instruments) was used. The membrane resistance was calculated by the change in membrane potential when a 1 Hz rectangular hyperpolarizing current was passed through for 350 mili sec. […] The measured potential/current value was analyzed by Axoscope ver. 1.1 software (Axon Instruments).
Membrane resistance reflects membrane permeation inhibiting capacity, and membrane potential reflects the active ion transport capacity due to the functions of various intermembrane ion transportation systems and ion permeation inhibiting capacity.
A microinjector was connected to a micro glass pipette held by a micromanipulator, and BAT dispersed solution (BAT concentration was 2 mM, aqueous solvent) was filled into this micro glass pipette. The tip of this glass pipette was connected to a patch electrode and setup within 200 μm proximity of the cells in which the membrane potential/membrane resistance was to be measured. BAT dispersed solution was released by compressing the micro glass pipette to attach BAT onto the cell membrane of target cells.

[1] = Solubility of BAT in aqueous solution; assay type: physicochemical; conditions: within acidic aqueous solutions (bivalent positive charge)
Excerpt: The thiophene oligomer having amino-methyl residue at the terminal, has a high solubility compared with other derivatives of the same type because of this amino-methyl residue. Solubility changes with the dissociation state of this amino-methyl residue. […] In aqueous solutions near a pH region suitable for the body (around 7.4), it has a feature of having both positively-charged monovalent BAT maintaining a high solubility, and non-charged BAT that agglutinates easily into a colloid state. Under this pH condition, by perfusing cells within a BAT-dispersed solution, this molecule can easily attach onto the cell surface. The hydrophilicity of BAT molecule is a novel feature that is not seen in either modified thiophene oligomers starting with α-terthienyl, or in other molecules designed as conductive high molecular monomers.

PC12 cells [2] = assay: Microinjection treatment using site-specific membrane disruption: success rate of Lucifer Yellow injection; assay type: cell-based; conditions: BAT 100 μM in injection solution, capillary approach speed 7 μm s^-1, n=30
Experimental: To determine the success or failure of microinjection treatment, Lucifer Yellow CH(LY), a water-soluble fluorescent dye, was added to the injection solution. After injection treatment, if a yellow fluorescence of LY origin was observed within the cell by a fluorescent microscope, then, the injection treatment was judged to have been successful. The variation of the success rate of cell injection was evaluated by the presence or absence of the photosensitizer BAT within the injection solution, and the presence or absence of a BAT excitation light exposure.
Normally, to make microinjection successful, a glass capillary having an opening with a diameter of a few hundred nanometers should be contacted with cells at high speed, to instantly penetrate/perforate the cell membrane or the nucleus membrane physically. […] The micromanipulator was attached to a fluorescence microscope (OLYMPUS OPTICAL, IX70 fluorescence microscope spec). Light of a 100 W […], which is the epi-illumination fluorescence light source equipped in the microscope, was treated by transmitting through an ultraviolet ray excitation filter set (OLYMPUS OPTICAL, U-MWU mirror unit), and the resulting ultraviolet light was used as the excitation source of the photosensitizer. […]

PC12 cells [3] = assay: Cell survival rate after injection treatment (LY maintaining rate); assay type: cell-based
Experimental: The survival rate of cells to which microinjection treatment by a physical shear force was given, and that for photosensitizing microinjection treated cells were compared.
LY was injected into cells by microinjection. In dead cells in which the cell membrane had collapsed, LY rapidly diffuses, and staining is lost (Cell, 14, 741-759 (1978)). Therefore, LY maintaining rate of injection treated cells was used as an indicator of cell survival rate, and the survival rate after 3 to 6 days following injection treatment was compared.

NCc1ccc(-c2ccc(-c3ccc(CN)s3)s2)s1 [BAT, 5′5″-bis(aminomethyl)-2,2′:5′,2″-terthiophene]
change in cell membrane resistance/membrane potential following light exposure (nerve cell line PC12; BAT 49 μM, light quantity 0.47 J/cm^2 (A)): a big change was not seen | change in cell membrane resistance/membrane potential following light exposure (nerve cell line PC12; BAT 49 μM, light quantity 0.94 J/cm^2 (B)): a decrease in cell membrane resistance/depolarization of the membrane potential occurred | change in cell membrane resistance/membrane potential following light exposure (nerve cell line PC12; BAT 49 μM, light quantity 1.57 J/cm^2 (C)): both disappeared | time to disappearance of cell membrane resistance/membrane potential (nerve cell line PC12; BAT 49 μM, light quantity 1.57 J/cm^2 (C), after a few second lag period): 8 s | cell membrane potential after laser exposure (nerve cell line PC12; BAT 2 mM dispersed solution sprayed onto target cells by micro glass pipette (Example 4)): depolarization of the cell membrane potential was observed | change in membrane resistance when only the axon of the cell was exposed to laser beams (nerve cell line PC12; only the axon exposed): a similar change in membrane resistance was observed | solubility [1]: dissolves easily | success rate of the injection (PC12 cells [2]; 2 min ultraviolet exposure): 80% | success rate of the injection (PC12 cells [2]; no light exposure): 13% | cell survival rate (LY retention rate) (PC12 cells [3]; BAT+LY without UV, 3rd day following treatment): 30% | cell survival rate (LY retention rate) (PC12 cells [3]; BAT+LY+UV photosensitizing injection, three to six days following injection treatment): 90%
